Data from the supplement of paper PMC10307832.

Key:
Assay in all cases: relative viability (nuclei count vs DMSO), 5 days (fraction); higher = more cells survive
[1] = compound: COc1nc(N)nc2c1ncn2[C@@H]1O[C@H](CO)[C@@H](O)[C@@H]1O [Nelarabine] + CC(=O)Nc1cccc(-n2c(=O)n(C3CC3)c(=O)c3c(Nc4ccc(I)cc4F)n(C)c(=O)c(C)c32)c1 [Trametinib] (partner 0.02 µM)
How it was run: (§1)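 Lung cancer cell lines were pin-tool dosed in 1536-well plates on the day after seeding, with either a lone drug or a fixed anchor-drug dose plus five library-drug doses (not always all listed) in √10 steps. Nuclei were counted on 4× images after 5 days. Relative viability is the ratio of treated-well to vehicle-well nuclei counts, with each value a median of duplicate plates.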

[2] = compound: C=CCn1c(=O)c2cnc(Nc3ccc(N4CCN(C)CC4)cc3)nc2n1-c1cccc(C(C)(C)O)n1 [Adavosertib] + Cc1nc(Nc2ncc(C(=O)Nc3c(C)cccc3Cl)s2)cc(N2CCN(CCO)CC2)n1 [Dasatinib] (partner 0.075 µM)
How it was run: as §1

[3] = compound: COc1nc(N)nc2c1ncn2[C@@H]1O[C@H](CO)[C@@H](O)[C@@H]1O [Nelarabine] + COc1cc2c(Oc3ccc(NC(=O)C4(C(=O)Nc5ccc(F)cc5)CC4)cc3F)ccnc2cc1OCCCN1CCOCC1 [Foretinib] (partner 0.25 µM)
How it was run: as §1

[4] = compound: C=CCn1c(=O)c2cnc(Nc3ccc(N4CCN(C)CC4)cc3)nc2n1-c1cccc(C(C)(C)O)n1 [Adavosertib] + CC(C)C[C@H](NC(=O)[C@H](Cc1ccccc1)NC(=O)c1cnccn1)B(O)O [Bortezomib] (partner 0.002 µM)
How it was run: as §1

| Cell Line | relative viability ([1]; first compound 0.01 µM) | relative viability ([1]; first compound 0.03162 µM) | relative viability ([1]; first compound 0.1 µM) | relative viability ([1]; first compound 0.3162 µM) | relative viability ([1]; first compound 1 µM) | relative viability ([2]; first compound 0.01 µM) | relative viability ([2]; first compound 0.03162 µM) | relative viability ([2]; first compound 0.1 µM) | relative viability ([2]; first compound 0.3162 µM) | relative viability ([3]; first compound 0.01 µM) | relative viability ([3]; first compound 0.03162 µM) | relative viability ([3]; first compound 0.1 µM) | relative viability ([3]; first compound 0.3162 µM) | relative viability ([3]; first compound 1 µM) | relative viability ([4]; first compound 0.01 µM) | relative viability ([4]; first compound 0.03162 µM) | relative viability ([4]; first compound 0.1 µM) | relative viability ([4]; first compound 0.3162 µM) |
| --- | --- | --- | --- | --- | --- | --- | --- | --- | --- | --- | --- | --- | --- | --- | --- | --- | --- | --- |
| NCI-H1915 | 0.328 | 0.318 | 0.284 | 0.299 | 0.305 | 0.325 | 0.315 | 0.352 | 0.293 | 1.13 | 1.03 | 1.16 | 1.1 | 1.12 | 0.93 | 0.967 | 0.987 | 0.972 |
| ABC-1 | – | – | – | – | – | 0.551 | 0.594 | 0.677 | 0.563 | 1.11 | 0.862 | 0.931 | 1.05 | 0.94 | 0.247 | 0.329 | 0.255 | 0.332 |
| NCI-H358 | 0.124 | 0.14 | 0.109 | 0.149 | 0.123 | 0.159 | 0.144 | 0.149 | 0.139 | 0.854 | 0.666 | 0.622 | 0.854 | 0.762 | – | – | – | – |
| HCC-366 | 0.503 | 0.37 | 0.279 | 0.466 | 0.327 | 0.668 | 0.631 | 0.736 | 0.63 | 1.03 | 0.717 | 0.942 | 0.974 | 0.895 | 1.03 | 1.05 | 1.1 | 1.05 |
| EBC-1 | – | – | – | – | – | – | – | – | – | 0.122 | 0.111 | 0.146 | 0.0922 | 0.105 | 0.719 | 0.653 | 0.562 | 0.493 |
| NCI-H1650 | 0.513 | 0.694 | 0.462 | 0.818 | 0.562 | 0.306 | 0.293 | 0.305 | 0.216 | 1.13 | 1.16 | 1.11 | 1.37 | 1.19 | 0.223 | 0.211 | 0.207 | 0.194 |
| NCI-H1395 | 1.12 | 1.1 | 0.946 | 1.05 | 1.12 | 0.427 | 0.407 | 0.416 | 0.439 | 1.07 | 0.923 | 1.08 | 1.01 | 1.01 | – | – | – | – |
| SW 900 | 0.642 | 0.778 | 0.765 | 0.777 | 0.753 | – | 0.607 | 0.645 | 0.36 | 1.02 | 0.749 | 0.934 | 0.947 | 0.832 | – | – | – | – |
| NCI-H1666 | 0.82 | 1 | 0.738 | 0.839 | 0.859 | 0.754 | 0.821 | 0.854 | 0.733 | 1.05 | 1.02 | 0.918 | 1 | 1.03 | 0.831 | 0.87 | 0.729 | 0.62 |
| COR-L23 | 0.779 | 0.558 | 0.516 | 0.612 | 0.777 | 0.63 | 0.459 | 0.517 | 0.239 | 1.23 | 1.02 | 0.917 | 0.992 | 0.964 | 0.976 | 1.03 | 0.95 | 0.546 |
| ChaGo-K-1 | 1 | 0.748 | 0.935 | 0.845 | 0.899 | 0.641 | 0.602 | 0.56 | 0.535 | 0.971 | 0.826 | 0.82 | 0.947 | 0.882 | 0.872 | 0.838 | 0.897 | 0.699 |
| SW 1573 | 0.667 | 0.599 | 0.566 | 0.631 | 0.512 | 0.62 | 0.424 | 0.633 | 0.215 | 0.889 | 1.09 | 0.882 | 0.952 | 0.86 | 1.21 | 1.07 | 1.16 | 1.16 |
| NCI-H23 | 0.403 | 0.404 | 0.343 | 0.378 | 0.409 | 0.737 | 0.838 | 0.788 | 0.412 | 1.13 | 0.862 | 0.94 | 1.09 | 0.948 | 0.97 | 1.05 | 0.844 | 0.327 |
| NCI-H1299 | – | – | – | – | – | – | – | – | – | 1.15 | 1.08 | 1.13 | 1.12 | 1.13 | 1.02 | 1.03 | 1.09 | 1.02 |
| NCI-H1944 | 0.448 | 0.443 | 0.401 | 0.388 | 0.376 | 0.205 | 0.201 | 0.218 | 0.199 | 1.09 | 0.896 | 0.776 | 0.917 | 0.834 | – | – | – | – |
| PC-3 [JPC-3] | 0.753 | 0.808 | 0.683 | 0.672 | 0.775 | 0.994 | 0.937 | 0.933 | 1.05 | 1.14 | 0.99 | 1.04 | 1.03 | 1.09 | 0.808 | 0.812 | 0.853 | 0.793 |
| NCI-H2126 | 0.666 | 0.612 | 0.599 | 0.52 | 0.538 | 0.602 | 0.619 | 0.564 | 0.561 | 1.24 | 1.13 | 1.18 | 1.41 | 1.08 | 1.12 | 1.17 | 1.11 | 1.15 |
| HCC-827 | 0.537 | 0.559 | 0.521 | 0.454 | 0.478 | 0.282 | 0.284 | 0.264 | 0.282 | 1.01 | 0.925 | 0.87 | 0.822 | 0.716 | 1.02 | 1.04 | 1.06 | 1.06 |
| H3255 | 0.713 | 0.706 | 0.619 | 0.651 | 0.806 | 0.347 | 0.382 | 0.352 | 0.352 | – | 1.12 | 0.828 | 0.938 | 0.923 | 0.539 | 0.885 | 0.699 | 0.845 |
